Values joined by “and” are separate entries in the source; they are usually repeats but may differ in a detail not shown here. Equal values may be shown once. ± gives the expanded uncertainty stated by the source.
What does the source list for `O=C(C(F)(F)C(F)(F)F)C(F)(C(F)(F)F)C(F)(F)F` [dodecafluoro-2-methylpentan-3-one]?
thermal conductivity (359.78 K, 24942 kPa, Liquid, transient hot wire): 0.06009 ± 0.0012 W/m/K; thermal conductivity (359.79 K, 91 kPa, Gas, transient hot wire): 0.01762 ± 0.0011 W/m/K; thermal conductivity (359.79 K, 92 kPa, Gas, transient hot wire): 0.01704 ± 0.001 W/m/K; thermal conductivity (359.83 K, 255 kPa, Gas, transient hot wire): 0.01639 ± 0.001 W/m/K and 0.01638 ± 0.001 W/m/K; thermal conductivity (359.85 K, 7097 kPa, Liquid, transient hot wire): 0.05177 ± 0.0011 W/m/K; thermal conductivity (359.85 K, 7099 kPa, Liquid, transient hot wire): 0.05171 ± 0.0011 W/m/K; thermal conductivity (359.89 K, 18005 kPa, Liquid, transient hot wire): 0.05715 ± 0.0012 W/m/K; thermal conductivity (359.9 K, 18006 kPa, Liquid, transient hot wire): 0.05719 ± 0.0012 W/m/K; thermal conductivity (359.92 K, 186 kPa, Gas, transient hot wire): 0.01654 ± 0.001 W/m/K and 0.01651 ± 0.001 W/m/K; thermal conductivity (359.92 K, 3418 kPa, Liquid, transient hot wire): 0.04946 ± 0.001 W/m/K; thermal conductivity (359.93 K, 3420 kPa, Liquid, transient hot wire): 0.04957 ± 0.001 W/m/K; thermal conductivity (359.99 K, 11963 kPa, Liquid, transient hot wire): 0.05432 ± 0.0011 W/m/K; thermal conductivity (360 K, 26 kPa, Gas, transient hot wire): 0.01679 ± 0.001 W/m/K; thermal conductivity (360.01 K, 26 kPa, Gas, transient hot wire): 0.01682 ± 0.001 W/m/K; thermal conductivity (360.01 K, 11965 kPa, Liquid, transient hot wire): 0.05404 ± 0.0011 W/m/K; thermal conductivity (360.03 K, 353 kPa, Liquid, transient hot wire): 0.0473 ± 0.00099 W/m/K; thermal conductivity (360.04 K, 353 kPa, Liquid, transient hot wire): 0.0473 ± 0.00099 W/m/K; thermal conductivity (360.05 K, 352 kPa, Liquid, transient hot wire): 0.04729 ± 0.00099 W/m/K and 0.0475 ± 0.00099 W/m/K; thermal conductivity (360.09 K, 92 kPa, Gas, transient hot wire): 0.01711 ± 0.0011 W/m/K and 0.01617 ± 0.001 W/m/K; thermal conductivity (360.11 K, 7096 kPa, Liquid, transient hot wire): 0.05168 ± 0.0011 W/m/K; thermal conductivity (360.11 K, 7097 kPa, Liquid, transient hot wire): 0.0517 ± 0.0011 W/m/K; thermal conductivity (360.19 K, 3417 kPa, Liquid, transient hot wire): 0.04945 ± 0.001 W/m/K; thermal conductivity (360.19 K, 3421 kPa, Liquid, transient hot wire): 0.04947 ± 0.001 W/m/K; thermal conductivity (360.32 K, 353 kPa, Liquid, transient hot wire): 0.0473 ± 0.00099 W/m/K; thermal conductivity (360.33 K, 352 kPa, Liquid, transient hot wire): 0.0473 ± 0.00099 W/m/K and 0.04729 ± 0.00099 W/m/K; thermal conductivity (360.33 K, 353 kPa, Liquid, transient hot wire): 0.04728 ± 0.00098 W/m/K; thermal conductivity (360.34 K, 26 kPa, Gas, transient hot wire): 0.01682 ± 0.001 W/m/K and 0.01675 ± 0.001 W/m/K; thermal conductivity (373.92 K, 307 kPa, Gas, hot wire): 0.01816 ± 0.00086 W/m/K; thermal conductivity (373.92 K, 308 kPa, Gas, hot wire): 0.01812 ± 0.00086 W/m/K; thermal conductivity (373.97 K, 206 kPa, Gas, hot wire): 0.01727 ± 0.00081 W/m/K; thermal conductivity (373.97 K, 207 kPa, Gas, hot wire): 0.0173 ± 0.00081 W/m/K; thermal conductivity (374 K, 102 kPa, Gas, hot wire): 0.01713 ± 0.00081 W/m/K and 0.01722 ± 0.00081 W/m/K; thermal conductivity (374.03 K, 306 kPa, Gas, hot wire): 0.01829 ± 0.00087 W/m/K and 0.01823 ± 0.00086 W/m/K; thermal conductivity (374.08 K, 25 kPa, Gas, hot wire): 0.01652 ± 0.00078 W/m/K and 0.01647 ± 0.00078 W/m/K; thermal conductivity (374.1 K, 205 kPa, Gas, hot wire): 0.01731 ± 0.00082 W/m/K; thermal conductivity (374.1 K, 206 kPa, Gas, hot wire): 0.01733 ± 0.00082 W/m/K; thermal conductivity (374.14 K, 102 kPa, Gas, hot wire): 0.01694 ± 0.0008 W/m/K and 0.01695 ± 0.0008 W/m/K; thermal conductivity (374.15 K, 305 kPa, Gas, hot wire): 0.01837 ± 0.00087 W/m/K; thermal conductivity (374.17 K, 305 kPa, Gas, hot wire): 0.01816 ± 0.00086 W/m/K; thermal conductivity (374.21 K, 25 kPa, Gas, hot wire): 0.01648 ± 0.00078 W/m/K; thermal conductivity (374.22 K, 25 kPa, Gas, hot wire): 0.01645 ± 0.00078 W/m/K; thermal conductivity (374.23 K, 205 kPa, Gas, hot wire): 0.0174 ± 0.00082 W/m/K and 0.01741 ± 0.00082 W/m/K; thermal conductivity (374.28 K, 102 kPa, Gas, hot wire): 0.01696 ± 0.0008 W/m/K; thermal conductivity (374.28 K, 304 kPa, Gas, hot wire): 0.01841 ± 0.00087 W/m/K; thermal conductivity (374.28 K, 305 kPa, Gas, hot wire): 0.01852 ± 0.00088 W/m/K; thermal conductivity (374.29 K, 102 kPa, Gas, hot wire): 0.01693 ± 0.0008 W/m/K; thermal conductivity (374.35 K, 25 kPa, Gas, hot wire): 0.01656 ± 0.00078 W/m/K and 0.01653 ± 0.00078 W/m/K; thermal conductivity (374.36 K, 203 kPa, Gas, hot wire): 0.01755 ± 0.00083 W/m/K; thermal conductivity (374.37 K, 204 kPa, Gas, hot wire): 0.01751 ± 0.00083 W/m/K; thermal conductivity (374.42 K, 102 kPa, Gas, hot wire): 0.01695 ± 0.0008 W/m/K; thermal conductivity (374.42 K, 303 kPa, Gas, hot wire): 0.01848 ± 0.00088 W/m/K and 0.01842 ± 0.00087 W/m/K; thermal conductivity (374.43 K, 102 kPa, Gas, hot wire): 0.01693 ± 0.0008 W/m/K; thermal conductivity (374.49 K, 376 kPa, Gas, transient hot wire): 0.01734 ± 0.0011 W/m/K; thermal conductivity (374.5 K, 25 kPa, Gas, hot wire): 0.01656 ± 0.00078 W/m/K and 0.01659 ± 0.00078 W/m/K; thermal conductivity (374.5 K, 377 kPa, Gas, transient hot wire): 0.01734 ± 0.0011 W/m/K; thermal conductivity (374.51 K, 202 kPa, Gas, hot wire): 0.0176 ± 0.00083 W/m/K; thermal conductivity (374.51 K, 203 kPa, Gas, hot wire): 0.01762 ± 0.00083 W/m/K; thermal conductivity (374.52 K, 308 kPa, Gas, transient hot wire): 0.01738 ± 0.0011 W/m/K; thermal conductivity (374.53 K, 307 kPa, Gas, transient hot wire): 0.01737 ± 0.0011 W/m/K; thermal conductivity (374.58 K, 101 kPa, Gas, hot wire): 0.01698 ± 0.0008 W/m/K; thermal conductivity (374.59 K, 101 kPa, Gas, hot wire): 0.01691 ± 0.0008 W/m/K; thermal conductivity (374.59 K, 207 kPa, Gas, transient hot wire): 0.01758 ± 0.0011 W/m/K; thermal conductivity (374.6 K, 206 kPa, Gas, transient hot wire): 0.01761 ± 0.0011 W/m/K; thermal conductivity (374.66 K, 25 kPa, Gas, hot wire): 0.0166 ± 0.00078 W/m/K and 0.01657 ± 0.00078 W/m/K; thermal conductivity (374.69 K, 376 kPa, Gas, transient hot wire): 0.01733 ± 0.0011 W/m/K; thermal conductivity (374.7 K, 376 kPa, Gas, transient hot wire): 0.01734 ± 0.0011 W/m/K; thermal conductivity (374.74 K, 306 kPa, Gas, transient hot wire): 0.01741 ± 0.0011 W/m/K; thermal conductivity (374.81 K, 206 kPa, Gas, transient hot wire): 0.01763 ± 0.0011 W/m/K and 0.01767 ± 0.0011 W/m/K; thermal conductivity (374.92 K, 374 kPa, Gas, transient hot wire): 0.01739 ± 0.0011 W/m/K; thermal conductivity (374.92 K, 375 kPa, Gas, transient hot wire): 0.01742 ± 0.0011 W/m/K; thermal conductivity (374.97 K, 305 kPa, Gas, transient hot wire): 0.0175 ± 0.0011 W/m/K; thermal conductivity (374.97 K, 306 kPa, Gas, transient hot wire): 0.01752 ± 0.0011 W/m/K; thermal conductivity (375.05 K, 205 kPa, Gas, transient hot wire): 0.01769 ± 0.0011 W/m/K; thermal conductivity (375.15 K, 373 kPa, Gas, transient hot wire): 0.01743 ± 0.0011 W/m/K; thermal conductivity (375.15 K, 374 kPa, Gas, transient hot wire): 0.01735 ± 0.0011 W/m/K; thermal conductivity (375.2 K, 304 kPa, Gas, transient hot wire): 0.01738 ± 0.0011 W/m/K; thermal conductivity (375.21 K, 304 kPa, Gas, transient hot wire): 0.01741 ± 0.0011 W/m/K; thermal conductivity (375.3 K, 204 kPa, Gas, transient hot wire): 0.01791 ± 0.0011 W/m/K and 0.0176 ± 0.0011 W/m/K; thermal conductivity (375.4 K, 372 kPa, Gas, transient hot wire): 0.01754 ± 0.0011 W/m/K; thermal conductivity (375.4 K, 373 kPa, Gas, transient hot wire): 0.01755 ± 0.0011 W/m/K; thermal conductivity (375.47 K, 303 kPa, Gas, transient hot wire): 0.01756 ± 0.0011 W/m/K; thermal conductivity (375.48 K, 303 kPa, Gas, transient hot wire): 0.01757 ± 0.0011 W/m/K; thermal conductivity (375.57 K, 202 kPa, Gas, transient hot wire): 0.01755 ± 0.0011 W/m/K

— the NIST ThermoML archive (doi:10.1021/acs.jced.8b00132)
